In patent US20100311965A1, “2-AMINOQUINAZOLINE DERIVATIVE” (CARNA BIOSCIENCES INC., priority 2007, published 2010):

Biological target: T1, Flt3 kinase (Homo sapiens, UniProt P36888)
T1 construct: purchased Carna Biosciences Inc. (Kobe) 08-154
T1 sequence (P36888 27-993): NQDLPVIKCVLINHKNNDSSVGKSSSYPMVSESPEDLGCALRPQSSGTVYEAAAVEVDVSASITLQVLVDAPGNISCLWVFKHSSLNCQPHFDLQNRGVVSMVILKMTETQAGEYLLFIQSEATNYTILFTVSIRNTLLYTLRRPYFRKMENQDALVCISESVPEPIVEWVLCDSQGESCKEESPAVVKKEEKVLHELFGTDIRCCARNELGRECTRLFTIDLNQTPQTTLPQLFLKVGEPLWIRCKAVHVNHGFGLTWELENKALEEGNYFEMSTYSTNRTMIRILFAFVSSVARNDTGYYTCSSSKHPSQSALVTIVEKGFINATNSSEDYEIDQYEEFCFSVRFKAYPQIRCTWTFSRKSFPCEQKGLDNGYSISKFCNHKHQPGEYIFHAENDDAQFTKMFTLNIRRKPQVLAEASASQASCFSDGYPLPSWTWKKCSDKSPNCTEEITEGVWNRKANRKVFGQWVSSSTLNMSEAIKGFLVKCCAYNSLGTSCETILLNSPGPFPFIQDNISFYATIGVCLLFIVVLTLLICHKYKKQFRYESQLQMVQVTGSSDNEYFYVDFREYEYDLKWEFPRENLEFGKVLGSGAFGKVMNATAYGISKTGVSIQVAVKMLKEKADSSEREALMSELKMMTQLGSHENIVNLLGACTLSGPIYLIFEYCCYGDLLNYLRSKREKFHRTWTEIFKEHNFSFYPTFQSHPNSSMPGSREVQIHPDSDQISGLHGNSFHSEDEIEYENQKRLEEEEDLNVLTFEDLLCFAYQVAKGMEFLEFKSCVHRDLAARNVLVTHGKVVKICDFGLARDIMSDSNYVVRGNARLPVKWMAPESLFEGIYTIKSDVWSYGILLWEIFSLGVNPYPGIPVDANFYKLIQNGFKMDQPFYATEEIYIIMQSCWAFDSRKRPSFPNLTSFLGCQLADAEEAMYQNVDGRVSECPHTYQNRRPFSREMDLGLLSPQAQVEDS
Assay: Kinase activity, mobility shift assay (MSA), Flt3
Assay type: biochemical
Conditions: at 0.01 μM; read-out: inhibitory activity against Flt3 kinase
Protocol: (§1) A test compound was dissolved in DMSO to obtain a 10 mM test compound solution, which was stored in a dark place at −20° C. until measurement. When bioactivity (kinase activity) is measured, a test compound solution is diluted with DMSO so that the concentration becomes 100 times higher than […], and then diluted 25 times (DMSO concentration is 4%) with an assay buffer described hereinafter.
(§2) Products manufactured by Carna Biosciences Inc. (Kobe) used as protein kinases (recombinant human kinases) in the test are as follows:
(§3) SYK (product number: 08-176), JAK3 (product number: 08-046), FLT3 (product number: 08-154), PDGFRα (PDGFRA) (product number: 08-157), TRKA (NTRK1) (product number: 08-186), KDR (product number: 08-191), CDK2/cycA (product number: 04-103), and AurA (AURKA) (product number: 05-101).
(§4) Kinase activity was measured by a mobility shift assay (MSA) method using QuickScout Screening Assist™ MSA (commercially available kit, manufactured by Carna Biosciences Inc.)
(§5) 5 μl of a test compound solution (the concentration is 4 times of the final concentration) dissolved or suspended in an assay buffer [20 mM HEPES, 0.01% Triton™ X-100, 1 mM dithiothreitol, pH 7.5] or 5 μl of a solvent (4% DMSO-assay buffer) was charged in a 384 well plate made of polypropylene (product number 781280, manufactured by Greiner Bio-One Co., Ltd.). Then, 5 μl of ATP/substrate/metal solution of QuickScout Screening Assist MSA was added. Furthermore, 10 μl of a kinase solution diluted with assay buffer was added and the reaction was initiated. However, only assay buffer (10 μl) was added to blank. The concentration of kinase and reaction conditions were controlled in accordance with the protocol of QuickScout Screening Assist MSA. Then, the reaction was terminated by adding 60 μl of termination buffer of QuickScout Screening Assist MSA and the amount of a substrate (S) and a phosphorylated substrate (P) in the reaction solution were determined in accordance with the protocol of QuickScout Screening Assist MSA using LabChip3000 (manufactured by Caliper Life Sciences Co., MA, USA), and also inhibition of the test compound at a concentration of 0.01, 0.1 and 1 μM was measured, respectively. The amounts of S and P were expressed by the height of each separated peak. Inhibition (%) of the test compound was calculated in accordance with the following equation:
(§6) Inhibition (%)=(1−(C−A)/(B−A))×100
(§7) where A denotes blank, B denotes a solvent and C denotes P/(P+S) of a well of the compound.

inhibition at 0.01 µM [%] | Structure (SMILES)
≥ 50 | Cc1cccc2cnc(Nc3ccc4c(c3)NC(=O)CO4)nc12 [Example 8, 6-(8-methylquinazolin-2-ylamino)-2H-benzo[b][1,4]oxazin-3(4H)-one]
≥ 50 | CC(=O)Nc1cccc(Nc2ncc3cccc(C)c3n2)c1 [Example 11, N-(3-(8-methylquinazolin-2-ylamino)phenyl)acetamide]
≥ 50 | Clc1cccc2cnc(Nc3ccc4cn[nH]c4c3)nc12 [Example 32, 8-chloro-N-(1H-indazol-6-yl)quinazoline-2-amine]

Same assay, conditions: at 0.1 μM; read-out: inhibitory activity against Flt3 kinase

inhibition at 0.1 µM [%] | Structure (SMILES)
≥ 50 | Cc1cccc2cnc(Nc3ccc4c(c3)OCO4)nc12 [Example 6, N-(benzo[d][1,3]dioxol-5-yl)-8-methylquinazoline-2-amine]
≥ 50 | Cc1cccc2cnc(Nc3ccc4c(c3)OCCO4)nc12 [Example 7, N-(2,3-dihydrobenzo[b][1,4]dioxin-6-yl)-8-methylquinazoline-2-amine]

Test system: Rat basophilic cells RBL-2H3
Assay: Action against IgE-induced degranulation (β-hexosaminidase release)
Assay type: cell-based
Conditions: RBL-2H3 cells, anti-DNP-IgE / DNP-BSA, read-out: inhibitory activity against IgE-induced degranulation
Protocol: An inhibitory action against SYK was evaluated by an inhibitory action against degranulation of basophils induced by IgE. Rat basophilic cells RBL-2H3 were incubated with an anti-DNP-IgE antibody (1 μg/mL, Zymed) overnight. After washing cells twice with HBSS, an antigen DNP-BSA (1 μg/mL, LSL) was added, followed by incubation for 30 minutes. The supernatant was taken and an activity of β-hexosaminidase in the solution isolated by degranulation was measured using p-nitrophenyl-N-β-D-glucosaminide as a substrate. Using an absorbance meter (Spectra MAX Pro, Molecular Devices), each absorbance at 405 nm and 570 nm of the solution was measured and an increase in the amount was taken as an enzyme activity. 10 minutes before the addition of an antigen, a test material and a solvent (0.1% DMSO) were added to cells. Inhibition rate (%) against degranulation was calculated by the following equation.
Inhibition rate (%)=(1−(A−C)/(B−C))×100
where A denotes an increase in absorbance of a test material group, B denotes an increase in absorbance of a solvent group, and C denotes an increase in absorbance of a solvent group which is not stimulated by an antigen.

Structure (SMILES) | inhibition at 0.05 µM [%]
Cc1c(N2CCN(C)CC2)ccc2cnc(Nc3ccc4cn[nH]c4c3)nc12 [Example 63, N-(1H-indazol-6-yl)-8-methyl-7-(4-methylpiperazin-1-yl)quinazoline-2-amine] | ≥ 50
CCNC(=O)n1ncc2c(N)cc(Nc3ncc4cccc(C)c4n3)cc21 [Example 79, 4-amino-N-ethyl-6-(8-methylquinazolin-2-ylamino)-1H-indazole-1-carboxamide] | ≥ 50
CCOC(=O)NCc1cc(Nc2ncc3cccc(C)c3n2)cc2[nH]ncc12 [Example 80, Ethyl [6-(8-methylquinazolin-2-ylamino)-1H-indazol-4-yl]methylcarbamate] | ≥ 50

Biological target: T2, Syk kinase (Homo sapiens, UniProt P43405)
T2 construct: purchased Carna Biosciences Inc. (Kobe) 08-176
Assay: Kinase activity, mobility shift assay (MSA), Syk
Assay type: biochemical
Conditions: read-out: inhibitory activity against Syk kinase
Protocol: as §1, §2, §3, §4, §5, §6, §7

Structure (SMILES) | inhibition at 0.1 µM [%]
Cc1cccc2cnc(Nc3ccc4cn[nH]c4c3)nc12 [Example 1, N-(1H-indazol-6-yl)-8-methylquinazoline-2-amine] | ≥ 50
Cc1cccc2cnc(Nc3ccc4[nH]nnc4c3)nc12 [Example 2, N-(1H-benzo[d][1,2,3]triazol-5-yl)-8-methylquinazoline-2-amine] | ≥ 50
Cc1ccc(Nc2ncc3cccc(C)c3n2)cc1O [Example 29, 5-(8-methylquinazolin-2-ylamino)-2-methylphenol] | ≥ 50
Cc1n[nH]c2cc(Nc3ncc4cccc(C)c4n3)ccc12 [Example 34, 8-methyl-N-(3-methyl-1H-indazol-6-yl)-quinazoline-2-amine] | ≥ 50
Cc1cc(Nc2ncc3cccc(C)c3n2)cc2[nH]ncc12 [Example 37, 8-methyl-N-(4-methyl-1H-indazol-6-yl)-quinazoline-2-amine] | ≥ 50
Cc1c(O)ccc2cnc(Nc3ccc4cn[nH]c4c3)nc12 [Example 48, 7-hydroxy-N-(1H-indazol-6-yl)-8-methylquinazoline-2-amine] | ≥ 50
Cc1cccc2cnc(Nc3cc(N)c4cn[nH]c4c3)nc12 [Example 52, 8-methyl-N-(4-amino-1H-indazol-6-yl)quinazoline-2-amine] | ≥ 50
Cc1c(NCCO)ccc2cnc(Nc3ccc4cn[nH]c4c3)nc12 [Example 73, 2-[2-(1H-indazol-6-ylamino)-8-methylquinazolin-7-ylamino]ethanol] | ≥ 50
Cc1c(N)ccc2cnc(Nc3ccc4cn[nH]c4c3)nc12 [Example 74, 7-amino-N-(1H-indazol-6-yl)-8-methylquinazoline-2-amine] | ≥ 50
Cc1c(N2CCC(CO)CC2)ccc2cnc(Nc3ccc4cn[nH]c4c3)nc12 [Example 84, {1-[2-(1H-indazol-6-ylamino)-8-methylquinazolin-7-yl]piperidin-4-yl}methanol] | ≥ 50
Cc1n[nH]c2cc(Nc3ncc4ccc(N5CCC(CO)CC5)c(C)c4n3)ccc12 [Example 94, {1-[2-(3-methyl-1H-indazol-6-ylamino)-8-methylquinazolin-7-yl]piperidin-4-yl}methanol] | ≥ 50

Further lines, results first:

inhibition at 0.1 µM [%] | Structure (SMILES)
≥ 50 | COc1ccc2cnc(Nc3ccc4c(C)n[nH]c4c3)nc2c1C [Example 96, N-(3-methyl-1H-indazol-6-yl)-7-methoxy-8-methylquinazoline-2-amine]
≥ 50 | COc1ccc2cnc(Nc3cc(C)c4cn[nH]c4c3)nc2c1C [Example 97, N-(4-methyl-1H-indazol-6-yl)-7-methoxy-8-methylquinazoline-2-amine]
≥ 50 | Cc1cccc2cnc(Nc3cc(NC(=O)NCCO)c4cn[nH]c4c3)nc12 [Example 98, 1-(2-hydroxyethyl)-3-[6-(8-methylquinazolin-2-ylamino)-1H-indazol-4-yl]urea]
≥ 50 | Cc1c(F)ccc2cnc(Nc3cc(N)c4cn[nH]c4c3)nc12 [Example 99, 7-fluoro-N-(4-amino-1H-indazol-6-yl)-8-methylquinazoline-2-amine]
≥ 50 | Cc1c(N2CCC(CO)CC2)ccc2cnc(Nc3cc(N)c4cn[nH]c4c3)nc12 [Example 101, {1-[2-(4-amino-1H-indazol-6-ylamino)-8-methylquinazolin-7-yl]piperidin-4-yl}methanol]
≥ 50 | COc1ccc2cnc(Nc3cc(N)c4cn[nH]c4c3)nc2c1C [Example 102, N-(4-amino-1H-indazol-6-yl)-7-methoxy-8-methylquinazoline-2-amine]
≥ 50 | Cc1cc(Nc2ncc3ccc(NCCO)c(C)c3n2)cc2[nH]ncc12 [Example 109, 2-[2-(4-methyl-1H-indazol-6-ylamino)-8-methylquinazolin-7-ylamino]ethanol]
≥ 50 | Cc1c(F)ccc2cnc(Nc3cc(N)c4nc[nH]c4c3)nc12 [Example 123, 7-fluoro-8-methyl-N-(4-amino-1H-benzo[d]imidazol-6-yl)quinazoline-2-amine]
≥ 50 | Cc1c(NCCO)ccc2cnc(Nc3cc(N)c4cn[nH]c4c3)nc12 [Example 124]
